The values below are quoted from earlier work in US12291505B2, “Methods for the synthesis of deuterated dextromethorphan” (AVANIR PHARMACEUTICALS, INC., priority 2016, dated 2025).

Series [1] deals with N-methyl-D-aspartate (NMDA) receptor. To be noted: weak uncompetitive antagonist.
Another series has as its target uptake of norepinephrine. To be noted: read-out: Ki, inhibition of uptake of norepinephrine.
Series [2] addresses norepinephrine transporter (Homo sapiens, UniProt P23975). To be noted: read-out: Ki, norepinephrine transporter affinity.
A further series deals with sigma-1 (Homo sapiens, UniProt Q99720). To be noted: read-out: Ki, sigma-1; sigma-1 agonist.
Sequence of sigma-1 (Q99720 whole entry): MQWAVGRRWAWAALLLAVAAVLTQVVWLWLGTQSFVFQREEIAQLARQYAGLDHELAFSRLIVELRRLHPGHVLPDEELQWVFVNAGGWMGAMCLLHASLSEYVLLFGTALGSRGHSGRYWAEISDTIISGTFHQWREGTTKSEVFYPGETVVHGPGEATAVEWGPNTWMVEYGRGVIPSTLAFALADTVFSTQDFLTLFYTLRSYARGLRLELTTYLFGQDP
The conditions of series [3]: co-administered with dextromethorphan.

Sequence of norepinephrine transporter (P23975 whole entry, species assumed): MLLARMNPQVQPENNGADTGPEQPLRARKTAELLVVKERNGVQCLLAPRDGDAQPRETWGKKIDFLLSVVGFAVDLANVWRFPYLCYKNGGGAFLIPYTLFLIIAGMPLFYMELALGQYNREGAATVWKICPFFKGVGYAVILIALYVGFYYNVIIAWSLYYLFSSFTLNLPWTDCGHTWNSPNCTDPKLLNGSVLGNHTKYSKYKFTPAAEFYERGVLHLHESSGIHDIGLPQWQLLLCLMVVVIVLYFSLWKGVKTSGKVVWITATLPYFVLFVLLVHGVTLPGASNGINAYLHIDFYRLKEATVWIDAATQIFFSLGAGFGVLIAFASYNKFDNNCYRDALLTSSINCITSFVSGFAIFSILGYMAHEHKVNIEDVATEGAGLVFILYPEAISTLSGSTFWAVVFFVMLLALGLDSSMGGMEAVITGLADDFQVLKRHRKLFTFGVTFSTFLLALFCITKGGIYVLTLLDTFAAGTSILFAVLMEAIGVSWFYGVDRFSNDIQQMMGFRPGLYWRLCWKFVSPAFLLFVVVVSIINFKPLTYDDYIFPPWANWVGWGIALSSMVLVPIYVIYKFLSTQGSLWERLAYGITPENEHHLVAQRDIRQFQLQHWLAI

For the molecule `COc1ccc2c(c1)[C@]13CCCC[C@@H]1[C@H](C2)N(C)CC3` [DM, (+)-3-methoxy-17-methyl-(9α,13α,14α)-morphinan], the Ki in series [1] was 1500 nM; on uptake of norepinephrine, 240 nM; in series [2], 13000 nM; on sigma-1 it was 200 nM.

Regarding `C=C[C@H]1C[N@@]2CC[C@H]1C[C@@H]2[C@@H](O)c1ccnc2ccc(OC)cc12` [Quinidine], in series [3], the “effect on dextromethorphan in the blood” value is recorded as “greatly increases the quantity of dextromethorphan circulating in the blood”.

The Ki is the dissociation constant of the complex between target and ligand, obtained from inhibition or displacement.
